Experiment [1] concerns the target rat adrenal receptor preparations (angiotensin II binding). The experiment can be described thus: inhibition of 125I-angiotensin II binding to rat adrenal receptor preparations. The following applies: read-out: IC50 (μM) for inhibition of 125I angiotensin II binding to rat adrenal receptor preparations.
The test system of experiment [2] is 2 kidney, 1-clip Goldblatt hypertensive rat (RHR). Briefly: antihypertensive evaluation (AHP3): blood pressure in conscious 2 kidney, 1-clip Goldblatt (renal) hypertensive rats (RHR). The following applies: 30 mg/kg ip in RHR, read-out: Max % decrease in blood pressure. The class given is in vivo. From the text:
The continuous monitoring of pulsatile blood pressure (BP) from unrestrained conscious rats surgically equipped with polyethylene cannulas was accomplished by means of a computer assisted data capture scheme (CADCS). The basic elements of the methodology are the cannulation procedure and the CADCS.
Cannulas fabricated from polyethylene tubing were inserted into the aorta via an undersized puncture hole below the renal arteries. The puncture hole was made by a 23 G disposable needle with a section of the aorta clamped off above and below the puncture site. The cannulas, consisting of a PE100 (0.86 mm ID) body and a PE50 (0.58 mm ID) tip, were attached to a trocar, inserted through the psoas muscle, and passed subcutaneously along the midline of the back and externalized between the ears. The cannulas were anchored to the psoas muscle and between the scalulae (3-0 green braided suture). […] Each rat was then given penicillin 30,000 units subcutaneously (Penicillin G Procaine Sterile Suspension).
The rats were fitted with a harness-spring-swivel assembly designed to protect the cannula and to provide the rat relative freedom of movement. The harnesses were fabricated from nylon hook and loop tape cemented to a metal plate to which spring wires (18-8 stainless steel), were attached to brass swivels. […]

In experiment [3] the test system is spontaneously hypertensive rat (SHR). The experiment can be described thus: antihypertensive evaluation (AHP3): blood pressure in conscious spontaneously hypertensive rats (SHR). The class given is in vivo. The following applies: 30 mg/kg PO in SHR, read-out: Max % decrease in blood pressure. As to the method: Thus, for example, compounds of formula I when administered intrapertoneally or orally to 2 kidney, 1-clip Goldblatt (renal) hypertensive rats (See S. Sen, et al., "Role of Renin-Anfgiotensin System in Chronic Renal Hypertensive Rats," Hypertension 1: 427-4343 (1979) and Clin. Soc. 57: 53-62, 1979, "Antihypertensive Effect of Prolonged Blockade of Angiotensin Formation in Benign and Malignant, one- and two-kidney Goldblatt Hypertensive Rats".) at doses in the range of 1-100 mg/kg cause 10-80 mmHg drops in blood pressure. […] Angiotensin binding inhibition activity and blood pressure lowering activity in renal hypertensive rats of the optimally substituted examples of formula I are listed in Table 1. Blood pressure lowering activity in spontaneously hypertensive rats of optimally substituted examples of formula II are listed in Table 2. […]
CADCS: The pulsatile blood pressure of each of 32 rats was monitored continuously by two signal conditioning units (Gould, Cleve., Ohio). The signals from these units were monitored and digital data for mean, systolic, and diastolic blood pressures as well as for heart rate were calculated every 5 min by two in-laboratory computers (Hewlett Packard, Cupertino, Ca.). […]

In the case of `O=C(O)C1Cc2c(ncn2Cc2ccccc2)CN1C(=O)C1c2ccccc2-c2ccccc21` (racemic) [Example 29, 1H-Imidazo[4,5-c]pyridine-6-carboxylic acid, 5-[(9H-fluoren-9-yl)carbonyl]-4,5,6,7-tetrahydro-1-(phenylmethyl)-, (±)-], the IC50 in experiment [1] was determined as 8 µM. For the same compound, the change in vivo at 30 mg/kg in experiment [2] was -22%.

Turning to `CSc1ccc(N2C(=O)C3Cc4[nH]cnc4CN3C2=O)cc1` (stereo not drawn) [Example 158, 8a,9-Dihydro-7-[4-(methylthio)phenyl]-1H-diimidazo[1,5-a:4',5'-d]pyridine-6,8(4H,7H)-dione], the change in vivo at 30 mg/kg in experiment [3] is -17%.

For the origin of these results see US4816463A, “Substituted diimidazo [1,5-a: 4',5'-d]pyridines having antihypertensive activity” (Warner-Lambert Company, priority 1987, dated 1989).
